The target of assay [1] is T1, Acetylcholinesterase (AChE) (Homo sapiens, UniProt P22303).
T1 construct: purchased Sigma-Aldrich
Description: biochemical. As to conditions: Ellman method, pH 8.0, 37 °C, absorbance at 405 nm; read-out: acetylcholinesterase inhibitory activity IC50.
Description: Acetylcholinesterase (AChE, Sigma-Aldrich, Saint Louis, MO, USA, 0.1 U/mL), acetylthiocholine iodide, dithiobisnitrobenzoic acid (DTNB), and tacrine were bought from Sigma-Aldrich.
The AChE inhibitory activity was evaluated based on the protocol developed by Ellman et al. [33]. The enzymatic reactions were conducted in 96-well microplates. The following were added to each well: 110 μL phosphate buffer (pH 8.0), 40 μL AChE, and the tested compounds (dissolved in 10 μL DMSO). The microplates were then incubated in 37 °C for 20 min. […] Then, the absorbance at 405 nm was detected after 1 h. Seven different concentrations and three replications per concentration for each compound were tested.

Assay [2] deals with murine monocytic RAW264.7 macrophage cells. In words: Anti-inflammatory assay: NO production by the Griess method. Type of assay: cell-based. The note with it: LPS (0.5 µg/mL)-stimulated RAW264.7 cells, NO content. The method, then:
The content of NO was determined by the Griess method. Briefly, the murine monocytic RAW264.7 macrophage cells in logarithmic growth phase were diluted to 1 × 10^5 cells/mL. Then, 100 µL of cell dilution was seeded into the 96-well plates and incubated overnight at 37 °C in a humid atmosphere with 5% CO2 for 24 h. The test compound and lipopolysaccharides (LPS) (Sigma) (0.5 µg/mL) were then added to each well and incubated for another 18 h. Then, 50 µL of cells culture supernatant was taken, 50 µL of the Griess reagent (reagent A and reagent B, Sigma) was added in triplicate, and NO production was evaluated in each well. After 5 min of incubation, the absorbances of samples were measured at 570 nm with Envision multilabel plate reader, and the corresponding contents were calculated by curve calibration.
A general note: Griess reagent forms a coloured azo dye with nitrite.

A further assay concerns the target acetylcholinesterase. As to conditions: cited from earlier work; for IC50: read-out: anti-acetylcholinesterase activity IC50.

Usually IC50 stands for the midpoint of a concentration-inhibition curve.

T1 sequence (P22303 32-614, species assumed): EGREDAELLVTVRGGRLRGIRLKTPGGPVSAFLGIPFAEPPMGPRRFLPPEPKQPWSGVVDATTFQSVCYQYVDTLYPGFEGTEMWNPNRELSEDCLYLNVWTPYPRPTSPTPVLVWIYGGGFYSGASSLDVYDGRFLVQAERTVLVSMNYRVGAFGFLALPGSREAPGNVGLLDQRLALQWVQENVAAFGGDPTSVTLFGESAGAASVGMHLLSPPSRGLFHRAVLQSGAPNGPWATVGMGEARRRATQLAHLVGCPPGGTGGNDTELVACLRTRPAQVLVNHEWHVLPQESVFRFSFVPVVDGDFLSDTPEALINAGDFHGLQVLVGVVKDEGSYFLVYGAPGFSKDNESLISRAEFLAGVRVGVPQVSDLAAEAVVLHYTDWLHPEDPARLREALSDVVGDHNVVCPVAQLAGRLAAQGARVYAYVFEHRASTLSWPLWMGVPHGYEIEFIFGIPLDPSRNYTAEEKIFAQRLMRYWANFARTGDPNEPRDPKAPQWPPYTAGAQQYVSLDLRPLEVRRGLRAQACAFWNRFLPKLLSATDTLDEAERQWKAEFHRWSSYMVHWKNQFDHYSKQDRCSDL

Take `CCCCC[C@@H]1Cc2cc(O)c(C(=O)O)c(O)c2[C@@H](c2[nH]c3ccccc3c2CC(=O)OC)O1` [Compound 1, Penisimplicin A]: the IC50 in assay [1] amounted to 6.35 µM. The “bioactivity in a panel of biological activity assays, including anti-inflammatory activity” value in assay [2] is “devoid of any bioactivities”.
Take `C=C1CCC[C@@]2(C)C[C@@]3([C@@]45C[C@]6(C)CCCC(=C)[C@H]6CC4=C(C)C(=O)O5)OC(=O)C(C)=C3C[C@H]12` [biatractylolide]: the “anti-acetylcholinesterase activity IC50” value on acetylcholinesterase is 6.5458 µg/mL.
As for `CC(C)=CCOc1c2ccoc2cc2oc(=O)ccc12` [isoimperatorin], the IC50 at acetylcholinesterase is 23.1 µM.
On to `CCCCCC(O)Cc1cc(O)c(C(=O)O)c(O)c1C1CCC2C(=O)NC(CC(C)C)C(=O)N21` (stereo not shown) [Compound 2, Penisimplicin B], for which the “bioactivity in a panel of biological activity assays, including anti-inflammatory activity” value in assay [2] is reported as “devoid of any bioactivities”.
In the case of `COC1=CC(=O)c2c(O)c3c(c(-c4c(OC)cc5c(c4O)C(=O)c4c(O)cc(C)cc4C5=O)c2C1=O)C[C@@H](C)O[C@H]3C` [floribundiquinone B], on acetylcholinesterase, the “anti-acetylcholinesterase activity IC50” value was 5.95 µg/mL.
Turning to `COC(C)(C)C(O)CCC(C)=CCOc1c2ccoc2cc2oc(=O)ccc12` (stereo not shown) [6′-hydroxy-7′-methoxybergamottin], the IC50 at acetylcholinesterase was 13.2 µM.

These data come from paper PMC10856265, “Penisimplicins A and B: Novel Polyketide–Peptide Hybrid Alkaloids from the Fungus Penicillium simplicissimum JXCC5” (Molecules, 2024).
